Tests used:
A549 cells = experiment: MTT cytotoxicity assay, A549; assay type: cell-based, human
Text: (§1) According to our previous data and data published by other research groups, chemical transformations of bile acids can greatly improve their antitumor potential. Thus, as the first step of evaluation of the biological activities of our novel DCA derivatives we assessed their effects on tumor cell viability. The cytotoxicity of the compounds was investigated with respect to a panel of cultured cell lines, including human duodenal HuTu-80, hepatocellular HepG2, cervical KB-3-1 and lung A549 carcinomas as well as murine macrophage RAW264.7 and non-transformed human fibroblasts hFF3 by MTT assay.
(§2) Human duodenal carcinoma HuTu-80 cells, human hepatocellular carcinoma HepG2 cells, human cervical carcinoma KB-3-1 cells, human lung carcinoma A549 cells were obtained from the Russian Cell Culture Collection (Institute of Cytology, RAS, St. Petersburg, Russia). Non-transformed human fibroblasts hFF3 were kindly provided by Dr. Olga Koval (Institute of Chemical Biology and Fundamental Medicine, SB RAS, Novosibirsk, Russia). RAW264.7 macrophages were kindly provided by Prof. Dr. Dmitry Kuprash (Engelhardt Institute of Molecular Biology, RAS, Moscow, Russia). The cells were cultured in DMEM (Sigma-Aldrich Inc., St. Louis, MO, USA) supplemented with 10% (v/v) heat-inactivated fetal bovine serum (FBS) (BioloT, St. Petersburg, Russia), 100 U/mL penicillin (ICN Biomedicals Inc., Costa Mesa, CA, USA), 100 µg/mL streptomycin and 0.25 µg/mL amphotericin; additionally, in the case of RAW264.7 cells, concentration of glucose in the medium was increased up to 4.5 mg/mL. The cells were incubated at 37 °C in 5% CO2 and 95% air (hereafter referred to as standard conditions). DCA derivatives were dissolved in DMSO to yield stock solutions of 10 mmol/L and stored at −20 °C prior to use.
(§3) Cells were seeded in triplicate in 96-well plates at a density of 5 × 10^3 (HuTu-80, HepG2, KB-3-1, hFF3), 10^4 (A549) or 5 × 10^4 (RAW264.7) cells per well. Cells were incubated under standard conditions for 24 h and then they were treated with varying doses of investigated derivatives for subsequent 24 h. Then 10 µL of MTT solution (5 mg/mL) were added to each wells and cells were incubated for an additional 2 h under standard conditions. The crystals of formazan forming within live cells were solubilized with DMSO and the absorbance was measured in a Multiscan RC plate reader (Thermo LabSystems, Helsinki, Finland) at a test and reference wavelengths of 570 nm and 620 nm, respectively. […] To perform SAR analysis, hierarchical clustering of compounds based on their IC50 values was fulfilled with Euclidean distance by using the Morpheus tool (https://software.broadinstitute.org/morpheus/), a platform designed for visualization and analysis of data in a matrix format. Heatmap, containing compounds’ SI values, were constructed by using the Excel 2010 software (Microsoft, Redmond, WA, USA). In order to reveal whether ROS participate in the induction of cell death by compound 9, HuTu-80 cells cultured in 96-well plate were pretreated by NAC at 2 mM for 1 h. Thereafter, the medium was replaced by fresh medium with compound 9 at 8 µM and the cells were incubated with subsequent 24 h under standard conditions. After this time period, the curves of cytotoxicity of compound 9 in the presence or absence of NAC were compared.

RAW264.7 macrophages = experiment: MTT cytotoxicity assay, RAW264.7; assay type: cell-based, murine
Text: as §1, §2, §3

[1] = system: non-transformed human fibroblasts hFF3; experiment: MTT cytotoxicity assay, hFF3; assay type: cell-based; details: HFF-3, 24 h, read-out: IC50 hFF3 (fibroblast)
Text: as §1
as §2, with “DCA derivatives were dissolved in DMSO to yield stock solutions of 10 mmol/L and stored at −20 °C prior to use.” left out
Cells were seeded in triplicate in 96-well plates at a density of 5 × 10^3 (HuTu-80, HepG2, KB-3-1, hFF3), 10^4 (A549) or 5 × 10^4 (RAW264.7) cells per well. […] The crystals of formazan forming within live cells were solubilized with DMSO and the absorbance was measured in a Multiscan RC plate reader (Thermo LabSystems, Helsinki, Finland) at a test and reference wavelengths of 570 nm and 620 nm, respectively. […]

[2] = system: panel of cultured cell lines (HuTu-80, HepG2, KB-3-1, A549, RAW264.7, hFF3); experiment: MTT cytotoxicity, range over the panel of tested cell lines; assay type: cell-based; details: 24 h, summary of Table 1 (for 2–10 partly from ref [21])
Text: as §1
Cells were seeded in triplicate in 96-well plates at a density of 5 × 10^3 (HuTu-80, HepG2, KB-3-1, hFF3), 10^4 (A549) or 5 × 10^4 (RAW264.7) cells per well. Cells were incubated under standard conditions for 24 h and then they were treated with varying doses of investigated derivatives for subsequent 24 h. Then 10 µL of MTT solution (5 mg/mL) were added to each wells and cells were incubated for an additional 2 h under standard conditions. The crystals of formazan forming within live cells were solubilized with DMSO and the absorbance was measured in a Multiscan RC plate reader (Thermo LabSystems, Helsinki, Finland) at a test and reference wavelengths of 570 nm and 620 nm, respectively. […]

HuTu-80 cells = experiment: Annexin V FITC/PI apoptosis detection; assay type: cell-based, human; details: 8 µM; for late apoptotic cells (Annexin V FITC+/PI+): control 1.5%; for early apoptotic cells (Annexin V FITC+/PI-): control 2.9%
Procedure: In the first step of the mechanistic study, the effect of compound 9 on phosphatidylserine (PS) externalization, a marker of the early phase of apoptosis, was analyzed by double staining of compound 9-treated HuTu-80 cells by annexin V FITC and propidium iodide (PI). Live cells are characterized by lipid membrane asymmetry—PS is mainly present in the inner leaflet of the plasma membrane, whereas phosphatidylcholine and sphingomielin are restricted to the outer leaflet. During apoptosis the activity of enzymes involved in membrane lipid scrambling […] and PS is exposed on cell surface. Annexin V is a protein that has a high affinity for PS and its conjugates with fluorophores can be used to estimate the level of PS externalization in vitro. Usage of PI gives in turn an opportunity to identify late apoptotic and necrotic cells displaying increased membrane permeability.
HuTu-80 cells were seeded in 6-well plates at a density of 5 × 10^5 cells per well and incubated for 24 h under standard conditions. Then the medium was replaced with fresh medium containing compound 9 at 8 µM. In order to determine induction of apoptosis, cells were harvested at 6, 18 and 24 h post treatment. Cells were detached with trypsin, washed with cold PBS and then resuspended gently in binding buffer at concentration of 10^6 cells/mL. Thereafter, cells were stained with fluorescein isothiocyanate (FITC)-conjugated Annexin V and PI (Annexin V-FITC Apoptosis Detection Kit, Millipore, Bedford, MA, USA) for 15 min in the dark and subsequently analyzed using NovoCyte Flow Cytometer (ACEA Biosciences Inc., San Diego, CA, USA). For each sample, 10.000 events were acquired.

[3] = system: caspase-3/7 in HuTu-80 cells; experiment: Caspase-3/-7 activity (Caspase-Glo 3/7); assay type: cell-based, human; details: 8 µM, 18 h and 24 h time points
Procedure: In the next step of the study our attention was focused on understanding the ability of compound 9 to activate caspases—a family of cysteine proteases, being critical mediators of apoptosis. In order to perform this, we evaluated the effect of compound 9 on activity of key executioner caspases-3 and -7 responsible for proteolytic cleavage of many proteins in the culminating step of cell death.
The caspase-3/-7 activity in HuTu-80 cells was assessed by using Caspase-Glo® 3/7 Assay kit (Promega, Madison, WI, USA) according to the manufacturer’s instructions. Briefly, the cells were seeded in white-walled 96-well plates at a density of 10^4 cells/well for 24. After incubation, cells were treated with compound 9 at 8 µM for 6, 18 or 24 h and then 100 µL of Caspase-Glo® 3/7 reagent was added to each well. The plate was carefully shaken for 30 sec on a plate mixer and afterwards incubated for 30 min at room temperature in the dark. The luminescence was detected using CLARIOstar plate reader (BMG Labtech, Ortenberg, Germany).

COC(=O)CC[C@@H](C)[C@H]1CC[C@H]2[C@@H]3CC[C@@H]4CC(O)(CNCCCO)CC[C@]4(C)[C@H]3CC(=O)[C@]12C (stereo partly drawn) [Compound 9, Methyl 3-hydroxy-3-((3-hydroxypropylamino)methyl)-12-oxo-5β-cholan-24-oate]
IC50 (A549 cells; Homo sapiens, A549, MTT, 24 h, read-out: IC50 A549 (lung)): 29 ± 3.5 µM
Selectivity index A549 (A549 cells; ratio IC50 hFF3 / IC50 A549): 1.1
IC50 (RAW264.7 macrophages; Mus musculus, RAW264.7, MTT, 24 h, read-out: IC50 RAW264.7 (macrophage)): 19.3 ± 3.7 µM
Selectivity index RAW264 (RAW264.7 macrophages; ratio IC50 hFF3 / IC50 RAW264.7): 1.7
IC50 [1]: 33.3 ± 1.2 µM
IC50 [2]: 4 to 33.3 µM
late apoptotic cells (Annexin V FITC+/PI+) (HuTu-80 cells; 18 h): 4.9%
early apoptotic cells (Annexin V FITC+/PI-) (HuTu-80 cells; 18 h): 23.5%
late apoptotic cells (Annexin V FITC+/PI+) (HuTu-80 cells; 24 h): 10.6%
early apoptotic cells (Annexin V FITC+/PI-) (HuTu-80 cells; 24 h): 36.1%
necrotic cells (Annexin V FITC-/PI+) (HuTu-80 cells; all time points (6, 18, 24 h)): ≤ 1.1%
caspase-3/7 activity [3]: significantly increased
